For 13 molecules, inhibition and IC50 results are on record in patent US8822449B2, “Substituted aminoindanes and analogs thereof, and the pharmaceutical use thereof” (Sanofi, priority 2008, dated 2014).

In the assay the target is T1, sodium-proton exchanger of subtype 3 (NHE3) (Homo sapiens, UniProt P48764).
T1 construct: expressed in transfected cells
T1 sequence (P48764 26-834): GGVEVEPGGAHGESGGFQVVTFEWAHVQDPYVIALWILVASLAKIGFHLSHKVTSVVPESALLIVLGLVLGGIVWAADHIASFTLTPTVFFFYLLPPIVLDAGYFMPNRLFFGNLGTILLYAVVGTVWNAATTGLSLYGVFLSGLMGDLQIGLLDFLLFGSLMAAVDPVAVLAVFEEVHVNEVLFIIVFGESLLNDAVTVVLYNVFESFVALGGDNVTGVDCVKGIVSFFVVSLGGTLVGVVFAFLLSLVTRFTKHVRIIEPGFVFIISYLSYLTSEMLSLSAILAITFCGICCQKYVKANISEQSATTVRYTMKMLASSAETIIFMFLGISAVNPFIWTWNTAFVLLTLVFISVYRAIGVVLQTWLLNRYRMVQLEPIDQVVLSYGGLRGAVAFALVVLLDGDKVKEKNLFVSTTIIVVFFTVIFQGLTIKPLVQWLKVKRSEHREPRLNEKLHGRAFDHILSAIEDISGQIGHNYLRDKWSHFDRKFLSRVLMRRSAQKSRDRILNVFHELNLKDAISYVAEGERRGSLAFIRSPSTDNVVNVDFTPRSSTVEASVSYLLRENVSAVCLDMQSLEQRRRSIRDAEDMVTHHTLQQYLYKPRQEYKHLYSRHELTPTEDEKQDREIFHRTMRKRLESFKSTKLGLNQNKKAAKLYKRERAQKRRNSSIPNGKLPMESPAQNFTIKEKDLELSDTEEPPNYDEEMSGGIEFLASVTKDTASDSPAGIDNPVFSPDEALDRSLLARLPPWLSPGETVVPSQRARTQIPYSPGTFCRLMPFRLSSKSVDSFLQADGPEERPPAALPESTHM
Nature of the assay: Recovery of intracellular pH (pHi) after acidification in LAP1 cells stably expressing NHE3 (BCECF fluorescence, FLIPR). It counts as cell-based. Conditions: LAP1 cells stably expressing NHE3; pH recovery after acidification; range 1 is % inhibition at 10 μM; read-out: Activity range (inhibitory effect on NHE3).

For `CS(=O)(=O)c1ccc(O[C@H]2c3cc(Cl)ccc3C[C@@H]2N2CCN(CCO)CC2)cc1` (racemic) [Example 384, 2-{4-[rac-trans-(1,2)-6-chloro-1-(4-methanesulfonylphenoxy)indan-2-yl]piperazin-1-yl}-ethanol], the inhibition at 10 µM was in the range of 20 to 50%.

With `NS(=O)(=O)c1ccc(O[C@H]2c3ccccc3C[C@@H]2N2CCCC(O)C2)c(Cl)c1Cl` (mixture of isomers) [Example 361, 2,3-dichloro-4-[trans-(1S,2S)-2-(3-hydroxy-piperidin-1-yl)indan-1-yloxy]benzenesulfonamide], the IC50 is 1000 to 10000 nM.

`CC(=O)Nc1cccc(O[C@H]2c3ccccc3C[C@@H]2N2CCCCC2)c1` [Example 663, N-[3-(trans-(1S,2S)-2-piperidin-1-ylindan-1-yloxy)phenyl]acetamide]: the IC50 was less than 1000 nM.

Regarding `CS(=O)(=O)c1ccccc1O[C@H]1c2ccccc2CC[C@@H]1N1CCC[C@H](N)C1` (racemic) [Example 156, (S)-1-[rac-trans-(1,2)-1-(2-methanesulfonylphenoxy)-1,2,3,4-tetrahydronaphthalen-2-yl]piperidin-3-ylamine], the inhibition at 10 µM was in the range of 20 to 50%.

For `N#Cc1ccc(O[C@H]2c3ccccc3CC[C@@H]2N2CCC[C@H](N)C2)c(Cl)c1` (racemic) [Example 532, 4-[rac-trans-(1,2)-2-((S)-3-aminopiperidin-1-yl)-1,2,3,4-tetrahydronaphthalen-1-yloxy]-3-chlorobenzonitrile], the IC50 was in the range of 1000 to 10000 nM.

On to `CS(=O)(=O)c1ccc(O[C@H]2c3cc(Cl)cc(F)c3C[C@@H]2NC2CCCC2)cc1` [Example 751, [trans-(1S,2S)-6-Chloro-4-fluoro-1-(4-methanesulfonyl-phenoxy)-indan-2-yl]-cyclopentyl-amine], for which the IC50 fell in the range of 1000 to 10000 nM.

In the case of `Cc1cc(O[C@H]2c3cc(F)cc(Cl)c3C[C@@H]2N2CCCC2)ccc1S(C)(=O)=O` (racemic) [Example 282, 1-[rac-trans-(1,2)-4-chloro-6-fluoro-1-(4-methanesulfonyl-3-methylphenoxy)indan-2-yl]pyrrolidine], the inhibition at 10 µM lay in the range of 20 to 50%.

Turning to `Cc1nnc(C)n1-c1ccc(O[C@H]2c3cc(Cl)ccc3C[C@@H]2N2CCCC2)c(Cl)c1` [Example 492, 4-[3-chloro-4-(trans-(1S,2S)-6-chloro-2-pyrrolidin-1-ylindan-1-yloxy)phenyl]-3,5-dimethyl-4H-[1,2,4]triazole], the IC50 is less than 1000 nM.

On to `N[C@@H]1CCCN([C@@H]2Cc3ccccc3[C@H]2Oc2ccc(N3CCNCC3)cc2)C1` (racemic) [Example 76, (R)-1-[rac-trans-(1,2)-1-(4-piperazin-1-ylphenoxy)indan-2-yl]piperidin-3-ylamine], for which the IC50 is 1000 to 10000 nM.

On to `Cc1cccc(Cl)c1O[C@H]1c2ccccc2CC[C@@H]1N1CCC[C@@H](N)C1` (racemic) [Example 39, (R)-1-[rac-trans-(1,2)-1-(2-chloro-6-methylphenoxy)-1,2,3,4-tetrahydronaphthalen-2-yl]piperidin-3-ylamine], for which the inhibition at 10 µM is 20 to 50%.

For `N[C@@H]1CCCN([C@H]2CCc3ccccc3[C@@H]2Oc2ccc(F)cc2-c2cc[nH]n2)C1` (racemic) [Example 120, (R)-1-{rac-trans-(1,2)-1-[4-fluoro-2-(1H-pyrazol-3-yl)phenoxy]-1,2,3,4-tetrahydronaphthalen-2-yl}piperidin-3-ylamine], the IC50 is less than 1000 nM.

As to `Cc1nnc(C)n1-c1ccc(O[C@H]2c3cc(Cl)ccc3C[C@@H]2N2CC[C@@H](O)C2)c(Cl)c1` [Example 139, (R)-1-{trans-(1S,2S)-6-chloro-1-[2-chloro-4-(3,5-dimethyl-[1,2,4]triazol-4-yl)phenoxy]indan-2-yl}pyrrolidin-3-ol], the IC50 was less than 1000 nM.

In the case of `N#Cc1cc(Cl)ccc1O[C@@H]1c2ccccc2C[C@H]1N1CCC(CN)CC1` (racemic) [Example 376, 2-[rac-trans-(1,2)-2-(4-aminomethylpiperidin-1-yl)indan-1-yloxy]-5-chlorobenzonitrile], the IC50 is 1000 to 10000 nM.
